Data taken from ChEMBL document CHEMBL1909046, “DrugMatrix in vitro pharmacology data”.

How the values were obtained:
[1] = biological target: Beta-2 adrenergic receptor (Homo sapiens, UniProt P07550); assay: DRUGMATRIX: Adrenergic beta2 radioligand binding (ligand: [3H] CGP-12177); type: cell membranes, Membrane; settings: cho; Not Active = under 50% inhibition at 10 µM
Calcitonin receptor = biological target: T1, Calcitonin receptor (Homo sapiens, UniProt P30988); type: cell membranes, Membrane; settings: t47d; also: in other assays of this panel Not Active means under 50% inhibition at 10 µM
T1 sequence (P30988 whole entry): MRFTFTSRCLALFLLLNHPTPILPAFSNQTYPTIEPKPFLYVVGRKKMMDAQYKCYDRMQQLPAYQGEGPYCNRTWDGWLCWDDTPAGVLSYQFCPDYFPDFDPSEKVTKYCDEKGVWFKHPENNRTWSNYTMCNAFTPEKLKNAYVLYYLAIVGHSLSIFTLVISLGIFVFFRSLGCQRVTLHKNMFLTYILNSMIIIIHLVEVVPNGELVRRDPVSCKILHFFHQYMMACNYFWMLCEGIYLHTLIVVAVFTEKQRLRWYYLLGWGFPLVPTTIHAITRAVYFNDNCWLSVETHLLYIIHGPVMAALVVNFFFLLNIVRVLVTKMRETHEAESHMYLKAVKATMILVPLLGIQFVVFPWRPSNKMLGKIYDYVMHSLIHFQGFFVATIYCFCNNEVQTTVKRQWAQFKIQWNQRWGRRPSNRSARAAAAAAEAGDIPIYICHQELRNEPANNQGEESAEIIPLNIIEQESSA

[2] = DRUGMATRIX: Calcium Channel Type L, Benzothiazepine radioligand binding (ligand: [3H] Diltiazem); type: cell membranes, Rattus norvegicus, Wistar, Brain, Membrane; settings: Not Active = under 50% inhibition at 10 µM
[3] = biological target: Vascular endothelial growth factor receptor 1 (Homo sapiens, UniProt P17948); type: cell-based; settings: huvec; also: in other assays of this panel Not Active means under 50% inhibition at 10 µM
Sequence of Vascular endothelial growth factor receptor 1 (P17948 whole entry): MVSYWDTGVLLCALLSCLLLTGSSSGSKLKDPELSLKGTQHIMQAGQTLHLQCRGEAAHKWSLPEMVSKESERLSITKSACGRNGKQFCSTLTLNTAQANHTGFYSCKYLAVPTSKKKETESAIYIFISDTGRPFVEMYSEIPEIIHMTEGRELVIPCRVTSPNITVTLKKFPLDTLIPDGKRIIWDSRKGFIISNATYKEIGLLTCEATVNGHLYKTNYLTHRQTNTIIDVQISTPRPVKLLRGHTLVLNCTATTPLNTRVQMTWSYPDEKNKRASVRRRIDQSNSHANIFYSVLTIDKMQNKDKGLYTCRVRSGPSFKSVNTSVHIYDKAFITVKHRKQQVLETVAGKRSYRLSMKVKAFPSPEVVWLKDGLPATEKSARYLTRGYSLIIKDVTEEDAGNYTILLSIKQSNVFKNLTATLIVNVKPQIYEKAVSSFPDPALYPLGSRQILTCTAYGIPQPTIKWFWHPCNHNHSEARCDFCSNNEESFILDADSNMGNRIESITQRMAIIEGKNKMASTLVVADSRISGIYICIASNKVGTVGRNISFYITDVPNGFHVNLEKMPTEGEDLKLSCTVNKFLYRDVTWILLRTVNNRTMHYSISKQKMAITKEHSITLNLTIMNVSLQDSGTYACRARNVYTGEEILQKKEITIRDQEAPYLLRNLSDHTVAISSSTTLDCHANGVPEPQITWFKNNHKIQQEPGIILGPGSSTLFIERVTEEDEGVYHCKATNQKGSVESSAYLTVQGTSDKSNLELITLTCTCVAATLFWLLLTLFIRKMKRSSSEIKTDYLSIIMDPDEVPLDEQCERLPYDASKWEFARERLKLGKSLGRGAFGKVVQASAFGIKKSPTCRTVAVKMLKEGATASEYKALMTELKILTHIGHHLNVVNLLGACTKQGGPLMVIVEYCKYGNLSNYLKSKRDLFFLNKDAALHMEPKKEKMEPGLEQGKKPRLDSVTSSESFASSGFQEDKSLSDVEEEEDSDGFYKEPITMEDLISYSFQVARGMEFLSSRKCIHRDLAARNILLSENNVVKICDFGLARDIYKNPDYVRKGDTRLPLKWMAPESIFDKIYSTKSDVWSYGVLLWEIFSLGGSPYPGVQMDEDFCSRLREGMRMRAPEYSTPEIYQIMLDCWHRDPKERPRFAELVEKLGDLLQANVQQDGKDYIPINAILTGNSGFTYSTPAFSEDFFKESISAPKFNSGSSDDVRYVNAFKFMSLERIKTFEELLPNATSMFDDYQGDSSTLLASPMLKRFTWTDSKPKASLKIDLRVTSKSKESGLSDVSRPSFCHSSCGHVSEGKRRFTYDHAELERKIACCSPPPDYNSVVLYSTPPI

[4] = biological target: T2, C-X-C chemokine receptor type 1 (Homo sapiens, UniProt P25024); also: in other assays of this panel Not Active means under 50% inhibition at 10 µM
T2 sequence (P25024 whole entry): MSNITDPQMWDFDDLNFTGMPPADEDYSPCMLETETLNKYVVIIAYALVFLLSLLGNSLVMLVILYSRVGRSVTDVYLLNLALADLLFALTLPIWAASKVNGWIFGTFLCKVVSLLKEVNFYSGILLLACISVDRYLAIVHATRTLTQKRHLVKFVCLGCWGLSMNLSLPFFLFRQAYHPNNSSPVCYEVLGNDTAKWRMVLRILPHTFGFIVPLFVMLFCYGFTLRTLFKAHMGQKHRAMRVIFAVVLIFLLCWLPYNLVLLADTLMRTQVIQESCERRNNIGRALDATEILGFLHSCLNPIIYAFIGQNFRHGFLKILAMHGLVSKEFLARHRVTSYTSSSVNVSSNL

[5] = DRUGMATRIX: GABAA, Flunitrazepam, Central radioligand binding (ligand: [3H] Flunitrazepam); type: cell membranes, Rattus norvegicus, Wistar, Brain, Membrane; settings: Not Active = under 50% inhibition at 10 µM
[6] = DRUGMATRIX: Glutamate, NMDA, Phencyclidine radioligand binding (ligand: [3H] TCP); type: cell membranes, Rattus norvegicus, Wistar, Cerebral cortex, Membrane; settings: Not Active = under 50% inhibition at 10 µM
Adenosine receptor A1 = biological target: T3, Adenosine receptor A1 (Homo sapiens, UniProt P30542); type: cell membranes, Membrane; settings: cho;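 also: radioligand binding assay at the adenosine A1 receptor, with DPCPX serving as the labelled ligand; in other assays of this panel Not Active means under 50% inhibition at 10 µM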
T3 sequence (P30542 whole entry): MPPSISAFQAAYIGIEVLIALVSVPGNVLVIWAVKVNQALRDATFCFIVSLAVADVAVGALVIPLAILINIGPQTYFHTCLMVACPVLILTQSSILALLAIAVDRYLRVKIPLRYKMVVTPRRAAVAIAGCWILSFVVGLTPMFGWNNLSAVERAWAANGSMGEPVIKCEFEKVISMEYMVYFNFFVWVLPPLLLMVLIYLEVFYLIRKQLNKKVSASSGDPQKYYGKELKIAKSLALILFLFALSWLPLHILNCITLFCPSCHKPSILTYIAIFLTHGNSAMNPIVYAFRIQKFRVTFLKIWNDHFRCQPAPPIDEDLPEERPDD

Sequence of Beta-2 adrenergic receptor (P07550 whole entry): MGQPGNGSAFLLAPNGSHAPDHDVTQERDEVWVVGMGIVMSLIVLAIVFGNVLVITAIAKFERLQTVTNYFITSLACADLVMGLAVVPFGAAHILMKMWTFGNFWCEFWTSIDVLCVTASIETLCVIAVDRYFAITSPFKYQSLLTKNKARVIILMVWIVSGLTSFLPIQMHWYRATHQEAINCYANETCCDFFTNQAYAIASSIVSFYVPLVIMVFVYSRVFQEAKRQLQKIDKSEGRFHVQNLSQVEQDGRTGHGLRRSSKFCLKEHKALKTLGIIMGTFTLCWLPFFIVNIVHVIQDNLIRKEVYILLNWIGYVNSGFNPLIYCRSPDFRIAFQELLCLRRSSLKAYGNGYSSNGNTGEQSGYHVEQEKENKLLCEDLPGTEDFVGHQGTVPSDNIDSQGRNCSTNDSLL

O=C(N[C@H](CO)[C@H](O)c1ccc([N+](=O)[O-])cc1)C(Cl)Cl [CHLORAMPHENICOL]
Not Active: IC50 [1] | IC50 (Calcitonin receptor) | IC50 [2] | Ki [2] | IC50 [3] | IC50 [4] | IC50 [5] | Ki [5] | IC50 [6] | Ki [6] | IC50 (Adenosine receptor A1)

Cn1c(=O)c2c(ncn2CC2OCCO2)n(C)c1=O [DOXOFYLLINE]
Not Active: IC50 [1] | IC50 (Calcitonin receptor) | IC50 [2] | Ki [2] | IC50 [3] | IC50 [4] | IC50 [5] | Ki [5] | IC50 [6] | Ki [6] | IC50 (Adenosine receptor A1)

CCC1=C[C@@H]2CN(C1)Cc1c([nH]c3ccccc13)[C@@](C(=O)OC)(c1cc3c(cc1OC)N(C)[C@H]1[C@@](O)(C(=O)OC)[C@H](OC(C)=O)[C@]4(CC)C=CCN5CC[C@]31[C@@H]54)C2 [VINORELBINE]
Not Active: IC50 [1] | IC50 (Calcitonin receptor) | IC50 [2] | Ki [2] | IC50 [3] | IC50 [4] | IC50 [5] | Ki [5] | IC50 [6] | Ki [6] | IC50 (Adenosine receptor A1)

CC(C(=O)O)c1cccc(C(=O)c2ccccc2)c1 (stereo not given) [KETOPROFEN]
Not Active: IC50 [1] | IC50 (Calcitonin receptor) | IC50 [2] | Ki [2] | IC50 [3] | IC50 [4] | IC50 [5] | Ki [5] | IC50 [6] | Ki [6] | IC50 (Adenosine receptor A1)

O=c1ccc2ccccc2o1 [COUMARIN]
Not Active: IC50 [1] | IC50 (Calcitonin receptor) | IC50 [2] | Ki [2] | IC50 [3] | IC50 [4] | IC50 [5] | Ki [5] | IC50 [6] | Ki [6] | IC50 (Adenosine receptor A1)

CC1(C)O[C@@H]2C[C@H]3[C@@H]4C[C@H](F)C5=CC(=O)C=C[C@]5(C)[C@H]4[C@@H](O)C[C@]3(C)[C@]2(C(=O)CO)O1 [FLUNISOLIDE]
Not Active: IC50 [1] | IC50 (Calcitonin receptor) | IC50 [2] | Ki [2] | IC50 [3] | IC50 [4] | IC50 [5] | Ki [5] | IC50 [6] | Ki [6] | IC50 (Adenosine receptor A1)

CC1(C)O[C@@H]2C[C@H]3[C@@H]4C[C@H](F)C5=CC(=O)C=C[C@]5(C)[C@@]4(F)[C@@H](O)C[C@]3(C)[C@]2(C(=O)CO)O1 [FLUOCINOLONE ACETONIDE]
Not Active: IC50 [1] | IC50 (Calcitonin receptor) | IC50 [2] | Ki [2] | IC50 [3] | IC50 [4] | IC50 [5] | Ki [5] | IC50 [6] | Ki [6] | IC50 (Adenosine receptor A1)

N=C(Nc1ccccc1)Nc1ccccc1
Not Active: IC50 [1] | IC50 (Calcitonin receptor) | IC50 [2] | Ki [2] | IC50 [3] | IC50 [4] | IC50 [5] | Ki [5] | IC50 [6] | Ki [6] | IC50 (Adenosine receptor A1)

CC[C@@H](CO)NCCN[C@@H](CC)CO [ETHAMBUTOL]
Not Active: IC50 [1] | IC50 (Calcitonin receptor) | IC50 [2] | Ki [2] | IC50 [3] | IC50 [4] | IC50 [5] | Ki [5] | IC50 [6] | Ki [6] | IC50 (Adenosine receptor A1)

CN1C(=O)COc2c(C(=O)NC3CN4CCC3CC4)cc(Cl)cc21 (stereo not given) [AZASETRON]
Not Active: IC50 [1] | IC50 (Calcitonin receptor) | IC50 [2] | Ki [2] | IC50 [3] | IC50 [4] | IC50 [5] | Ki [5] | IC50 [6] | Ki [6] | IC50 (Adenosine receptor A1)

O=NN(CCCl)C(=O)NCCCl [CARMUSTINE]
Not Active: IC50 [1] | IC50 (Calcitonin receptor) | IC50 [2] | Ki [2] | IC50 [3] | IC50 [4] | IC50 [5] | Ki [5] | IC50 [6] | Ki [6] | IC50 (Adenosine receptor A1)

O=C(C1CCCCC1)N1CC(=O)N2CCc3ccccc3C2C1 (stereo not given) [PRAZIQUANTEL]
Not Active: IC50 [1] | IC50 (Calcitonin receptor) | IC50 [2] | Ki [2] | IC50 [3] | IC50 [4] | IC50 [5] | Ki [5] | IC50 [6] | Ki [6] | IC50 (Adenosine receptor A1)

C[C@]12CC[C@@H]3c4ccc(OC(=O)c5ccccc5)cc4CC[C@H]3[C@@H]1CC[C@@H]2O [ESTRADIOL BENZOATE]
Not Active: IC50 [1] | IC50 (Calcitonin receptor) | IC50 [2] | Ki [2] | IC50 [3] | IC50 [4] | IC50 [5] | Ki [5] | IC50 [6] | Ki [6] | IC50 (Adenosine receptor A1)

C[N+](C)(C)CCO.[Cl-] [CHOLINE CHLORIDE]
Not Active: IC50 [1] | IC50 (Calcitonin receptor) | IC50 [2] | Ki [2] | IC50 [3] | IC50 [4] | IC50 [5] | Ki [5] | IC50 [6] | Ki [6] | IC50 (Adenosine receptor A1)

NC(=O)NO [HYDROXYUREA]
Not Active: IC50 [1] | IC50 (Calcitonin receptor) | IC50 [2] | Ki [2] | IC50 [3] | IC50 [4] | IC50 [5] | Ki [5] | IC50 [6] | Ki [6] | IC50 (Adenosine receptor A1)

C[C@@]12C(=O)OC(=O)[C@]1(C)[C@H]1CC[C@@H]2O1 [CANTHARIDIN]
Not Active: IC50 [1] | IC50 (Calcitonin receptor) | IC50 [2] | Ki [2] | IC50 [3] | IC50 [4] | IC50 [5] | Ki [5] | IC50 [6] | Ki [6] | IC50 (Adenosine receptor A1)

O=S(=O)([O-])CCS.[Na+] [MESNA]
Not Active: IC50 [1] | IC50 (Calcitonin receptor) | IC50 [2] | Ki [2] | IC50 [3] | IC50 [4] | IC50 [5] | Ki [5] | IC50 [6] | Ki [6] | IC50 (Adenosine receptor A1)

CCN[C@@H]1C[C@H](N)[C@@H](O[C@H]2OC(CN)=CC[C@H]2N)[C@H](O)[C@H]1O[C@H]1OC[C@](C)(O)[C@H](NC)[C@H]1O [NETILMICIN]
Not Active: IC50 [1] | IC50 (Calcitonin receptor) | IC50 [2] | Ki [2] | IC50 [3] | IC50 [4] | IC50 [5] | Ki [5] | IC50 [6] | Ki [6] | IC50 (Adenosine receptor A1)

C/C=C/C[C@@H](C)[C@@H](O)[C@H]1C(=O)N[C@@H](CC)C(=O)N(C)CC(=O)N(C)[C@@H](CC(C)C)C(=O)N[C@@H](C(C)C)C(=O)N(C)[C@@H](CC(C)C)C(=O)N[C@@H](C)C(=O)N[C@H](C)C(=O)N(C)[C@@H](CC(C)C)C(=O)N(C)[C@@H](CC(C)C)C(=O)N(C)[C@@H](C(C)C)C(=O)N1C [CYCLOSPORINE]
Not Active: IC50 [1] | IC50 (Calcitonin receptor) | IC50 [2] | Ki [2] | IC50 [3] | IC50 [4] | IC50 [5] | Ki [5] | IC50 [6] | Ki [6] | IC50 (Adenosine receptor A1)

CCOC(=O)C(C)(C)Oc1ccc(Cl)cc1 [CLOFIBRATE]
Not Active: IC50 [1] | IC50 (Calcitonin receptor) | IC50 [2] | Ki [2] | IC50 [3] | IC50 [4] | IC50 [5] | Ki [5] | IC50 [6] | Ki [6] | IC50 (Adenosine receptor A1)

CCCC(=O)Nc1ccc(OCC(O)CNC(C)C)c(C(C)=O)c1 (stereo not given) [ACEBUTOLOL]
Not Active: IC50 (Calcitonin receptor) | IC50 [2] | Ki [2] | IC50 [3] | IC50 [4] | IC50 [5] | Ki [5] | IC50 [6] | Ki [6] | IC50 (Adenosine receptor A1)
